Experiments:
[1] = test system: hepatocellular carcinoma (HepG2); test: MTT cytotoxicity assay, HepG2; format: cell-based, human; settings: 72 h
Description: (§1) Example 2 describes the in vitro cytotoxicity, which is indicative of the induction of cell death and/or inhibition of cellular proliferation of cancer cells, of the cyclometalated N-heterocyclic complexes on cervical epithelioid carcinoma, hepatocellular carcinoma, leukemia, nasopharyngeal carcinoma, breast carcinoma, melanoma, and lung carcinoma.
(§2) By means of MTT assays, the cytotoxic properties of cyclometalated N-heterocyclic carbene complexes (1-25) were determined toward some established human cancer cell lines including hepatocellular carcinoma (HepG2), cervical epithelioid carcinoma (HeLa), epithelial carcinoma (KB and its camptothecin-resistant cell line KB100), non-small cell lung carcinoma (NCI-H460), leukemia (HL-60), breast carcinoma (MDA-MB-231), melanoma (B16) and nasopharyngeal carcinoma (SUNE1). […] In terms of the IC50 values, they display similar cytotoxic properties compared to the reference complexes cisplatin and camptothecin (CPT).

[2] = test system: cervical epithelioid carcinoma (HeLa); test: MTT cytotoxicity assay, HeLa; format: cell-based, human; settings: 72 h
Description: as §1, §2

[3] = test system: nasopharyngeal carcinoma (SUNE1); test: MTT cytotoxicity assay, SUNE1; format: cell-based, human; settings: 72 h
Description: as §1, §2

[4] = test system: lung fibroblast cells (CCD-19Lu); test: MTT cytotoxicity to non-cancerous cells, CCD-19Lu; format: cell-based, human; settings: 72 h, non-cancerous lung fibroblast cells CCD-19Lu
Description: as §2
Using lung fibroblast cells (CCD-19Lu), the cytotoxicity of the complexes to non-cancerous cells was also examined.

[5] = test system: epithelial carcinoma (KB); test: MTT cytotoxicity assay, KB; format: cell-based, human; settings: 72 h
Description: as §1, §2

[6] = test system: camptothecin-resistant cell line KB100; test: MTT cytotoxicity assay, KB100; format: cell-based, human; settings: 72 h
Description: as §1, §2

[7] = test system: non-small cell lung carcinoma (NCI-H460); test: MTT cytotoxicity assay, NCI-H460; format: cell-based, human; settings: 72 h
Description: as §1, §2

[8] = test system: breast carcinoma (MDA-MB-231); test: MTT cytotoxicity assay, MDA-MB-231; format: cell-based, human; settings: 72 h, MBA-MD-231
Description: as §1, §2

[9] = test system: melanoma (B16); test: MTT cytotoxicity assay, B16; format: cell-based, mouse; settings: 72 h
Description: as §1, §2

[10] = test system: leukemia (HL-60); test: MTT cytotoxicity assay, HL-60; format: cell-based, human; settings: 72 h
Description: as §1, §2

[11] = test system: NCI-H460 tumor; test: In vivo anti-cancer study, NCI-H460 tumor in nude mice; design: species or system BALB/c AnN-nu mice (nude mice); settings: twice-a-week intraperitoneal injection; for inhibition of NCI-H460 tumor growth: 28 days
Excerpt: For the complex 14, four-week-old male BALB/c AnN-nu mice (nude mice) were obtained from the laboratory of PearL Materia Medica Development (Shenzhen) Ltd. Tumor cells (1×10^6) resuspended in DMEM medium were implanted by subcutaneous injection on the right flank of the mice. When tumors were approximately 50 mm^3 in size, animals were randomly separated into four groups to receive treatment of twice-a-week intraperitoneal injection of 20% PET vehicle control (20% PET=12% polyethylene glycol 400; 6% ethanol; 2% Tween 20; 80% phosphate-buffered saline), complex 14 at 1 mg/kg, complex 14 at 3 mg/kg or cyclophosphamide at 30 mg/kg. Volumes of the tumor were measured every 3 to 4 days. Tumor volume was calculated by the formula: abc/2 in which a, represents tumor length; b, the width; and c, tumor thickness, as measured with a caliper and expressed in millimeter. After 28 days, the mice were sacrificed and the tumors were taken out and their weights were measured.

[12] = test system: SUNE1 cells; test: Apoptosis induction by flow cytometry (AV-FITC / PI); format: cell-based; settings: 72 h
Description: Since cancer is characterized by uncontrolled cellular proliferation, there is a considerable interest in chemotherapeutic-induced apoptosis [J. C. Reed, Nature Rev. Drug Discov. 2002, 1, 111; D. W. Nicholson, Nature 2000, 407, 810]. Using fluorescein-labeled annexin V (AV-FITC) and propidium iodide (PI), the apoptosis-inducing properties of complex 1 in SUNE1 cells were examined by flow cytometry. […] The apoptosis-inducing properties of complex 1 at a lower dose (12 μM for 72 h) were also examined. […] According to the propagation profiles (formazan absorbance A550nm vs incubation time) of the treated SUNE1 cells, there is a trend of cellular growth inhibition in the presence of complex 1 at 12 μM level. Taken together with the flow cytometric results, complex 1 appears to inhibit cancer cell proliferation at 12 μM and induce apoptosis at higher doses (i.e. 60 μM).
The apoptosis-inducing properties of complex 14 in SUNE1 cells were also examined by flow cytometry. […] The apoptosis-inducing properties of complex 14 at a lower dose (1 μM for 72 h) were also examined. […] Thus, complex 14 could induce apoptosis at 10 μM.

[13] = test system: KB cells; test: Alkaline comet assay for DNA strand breaks; format: cell-based

Row | Structure (SMILES) | IC50 [1] | IC50 [2] | IC50 [3] | IC50 [4] | IC50 [5] | IC50 [6] | IC50 [7] | IC50 [8] | IC50 [9] | IC50 [10] | inhibition of NCI-H460 tumor growth ([11]; 1 mg/kg) | inhibition of NCI-H460 tumor growth ([11]; 3 mg/kg) | body-weight loss ([11]; 3 or 1 mg/kg) | viable cells unstained by both AV-FITC and PI ([12]; 1 μM) | SUNE1 cells in early apoptotic state ([12]; 10 μM) | strand breaks on chromosomal DNA (comet assay) ([13]; 1 μg/ml, 3 h, KB cells) | reversal of DNA cleavage events upon second incubation ([13]; second incubation at 55° C. for 10 min)
1 | CCCn1cc[n+](CCC)[c]1[Pt-2]12[c]3ccccc3-c3cccc([n+]31)-c1cc3ccccc3c[n+]12.F[P-](F)(F)(F)(F)F (stereo not shown) [Complex 24] | 880 nM | 550 nM | 710 nM | 12 µM |  |  |  |  |  |  |  |  |  |  |  |  | 
2 | CCCn1cc[n+](CCC)[c]1[Pt-2]12[c]3ccccc3-c3cccc([n+]31)-c1cccc[n+]12.F[P-](F)(F)(F)(F)F (stereo not shown) [Complex 13] | 1100 nM | 50 nM | 160 nM | 12 µM | 140 nM | 0.13 µM | 180 nM | 280 nM | 420 nM | 560 nM |  |  |  |  |  |  | 
3 | Cc1cc(C)c(-[n+]2ccn(CC(=O)c3ccccc3)[c]2[Au-]23[c]4ccccc4-c4cccc([n+]42)-c2cccc[c]23)c(C)c1.O=S(=O)([O-])C(F)(F)F [Complex 5] | 2600 nM | 3500 nM | 3400 nM | 11 µM | 4400 nM | 4 µM | 9500 nM | 13000 nM | 2100 nM | 1200 nM |  |  |  |  |  |  | 
4 | CC(C)c1cc(C(C)C)c(-n2cc[n+](-c3c(C(C)C)cc(C(C)C)cc3C(C)C)[c]2[Au-]23[c]4ccccc4-c4cccc([n+]42)-c2cccc[c]23)c(C(C)C)c1.O=S(=O)([O-])C(F)(F)F [Complex 4] | 1900 nM | 2700 nM | 5500 nM | 11 µM | 3600 nM | 4.5 µM | 6200 nM | 3700 nM | 7700 nM | 1100 nM |  |  |  |  |  |  | 
5 | CCCCn1cc[n+](CCCC)[c]1[Pt-2]12[c]3ccccc3-c3cccc([n+]31)-c1cccc[n+]12.F[P-](F)(F)(F)(F)F (stereo not shown) [Complex 14] | 770 nM | 50 nM | 140 nM | 10 µM | 40 nM | 0.08 µM | 90 nM | 40 nM | 150 nM | 80 nM | significantly less effective | 55% | no significant weight loss | ~90% | 46.4% |  | 
6 | N.N.[Cl][Pt][Cl] [cisplatin, reference compound] | 14600 nM | 14900 nM | 2400 nM | > 100 µM |  |  |  |  |  |  |  |  |  |  |  |  | 
7 | CCCCn1cc[n+](C[n+]2ccn(CCCC)[c]2[Au-]23[c]4ccccc4-c4cccc([n+]42)-c2cccc[c]23)[c]1[Au-]12[c]3ccccc3-c3cccc([n+]31)-c1cccc[c]12.O=S(=O)([O-])C(F)(F)F.O=S(=O)([O-])C(F)(F)F [Complex 2] | 7900 nM | 7800 nM | 3300 nM | > 100 µM | 10000 nM | 28 µM | 3000 nM | 4200 nM | 10000 nM | 5900 nM |  |  |  |  |  |  | 
8 | CCCC[n+]1ccn(CCCn2cc[n+](CCCC)[c]2[Pt-2]23[c]4ccccc4-c4cccc([n+]42)-c2cccc[n+]23)[c]1[Pt-2]12[c]3ccccc3-c3cccc([n+]31)-c1cccc[n+]12.F[P-](F)(F)(F)(F)F.F[P-](F)(F)(F)(F)F (stereo not shown) [Complex 16] | 7100 nM | 3900 nM | 5600 nM | 27 µM |  |  |  |  |  |  |  |  |  |  |  |  | 
9 | CCCCn1cc[n+](CCO)[c]1[Pt-2]12[c]3ccccc3-c3cccc([n+]31)-c1cc3ccccc3c[n+]12.F[P-](F)(F)(F)(F)F (stereo not shown) [Complex 25] | 680 nM | 450 nM | 880 nM | 11 µM |  |  |  |  |  |  |  |  |  |  |  |  | 
10 | Cc1cc(C)c(-[n+]2ccn(CCCO)[c]2[Pt-2]23[c]4ccccc4-c4cccc([n+]42)-c2cccc[n+]23)c(C)c1.F[P-](F)(F)(F)(F)F (stereo not shown) [Complex 23] | 780 nM | 480 nM | 940 nM | 7.5 µM |  |  |  |  |  |  |  |  |  |  |  |  | 
11 | CCCC[n+]1ccn(Cn2cc[n+](CCCC)[c]2[Pt-2]23[c]4ccccc4-c4cccc([n+]42)-c2cccc[n+]23)[c]1[Pt-2]12[c]3ccccc3-c3cccc([n+]31)-c1cccc[n+]12.F[P-](F)(F)(F)(F)F.F[P-](F)(F)(F)(F)F (stereo not shown) [Complex 15] | 9400 nM | 8000 nM | 6400 nM | 40 µM |  |  |  |  |  |  |  |  |  |  |  |  | 
12 | COc1ccc(-c2cc3[n+]4c(c2)-c2cc5ccccc5c[c]2[Au-]4([c]2n(C)cc[n+]2C)[c]2cc4ccccc4cc2-3)cc1.O=S(=O)([O-])C(F)(F)F [Complex 8] | 1000 nM | 500 nM | 260 nM | 0.89 µM | 420 nM | 18 µM | 180 nM | 960 nM | 560 nM | 130 nM |  |  |  |  |  |  | 
13 | CCCCn1cc[n+](C[n+]2ccn(CCCC)[c]2[Au-]23[c]4cc5ccccc5cc4-c4cc(-c5ccc(OC)cc5)cc([n+]42)-c2cc4ccccc4c[c]23)[c]1[Au-]12[c]3cc4ccccc4cc3-c3cc(-c4ccc(OC)cc4)cc([n+]31)-c1cc3ccccc3c[c]12.O=S(=O)([O-])C(F)(F)F.O=S(=O)([O-])C(F)(F)F [Complex 9] | 4500 nM | 7200 nM | 4500 nM | 9.9 µM | 5000 nM | 3.8 µM | 5500 nM | 6200 nM | 9100 nM | 7100 nM |  |  |  |  |  |  | 
14 | Cn1cc[n+](C)[c]1[Pt-2]12[c]3ccccc3-c3cccc([n+]31)-c1cccc[n+]12.F[P-](F)(F)(F)(F)F (stereo not shown) [Complex 11] | 310 nM | 330 nM | 510 nM | 5.7 µM | 660 nM | 0.62 µM | 580 nM | 1500 nM | 3100 nM | 580 nM |  |  |  |  |  |  | 
15 | COc1cccc2c1C(=O)c1c(O)c3c(c(O)c1C2=O)C[C@@](O)(C(=O)CO)C[C@@H]3O[C@H]1C[C@H](N)[C@H](O)[C@H](C)O1 [doxorubicin] |  |  |  |  |  |  |  |  |  |  |  |  |  |  |  | induced extensive strand breaks on chromosomal DNA | not
16 | CCn1cc[n+](CC)[c]1[Pt-2]12[c]3ccccc3-c3cccc([n+]31)-c1cccc[n+]12.F[P-](F)(F)(F)(F)F (stereo not shown) [Complex 12] | 1300 nM | 480 nM | 320 nM | 2.1 µM | 890 nM | 0.77 µM | 570 nM | 1200 nM | 1800 nM | 520 nM |  |  |  |  |  |  | 
